The subject of test [1] is bacteria. The test is described as follows: Binding of targeting peptides to microorganisms (Table 3). Conditions: peptide binding in aqueous buffers varied by peptide solubility; preferably 1x PBS.
Test [2] relates to microorganisms. The test is described as follows: Morphology, biofilm and growth disruption by peptides (Table 5). More on the design: key: A: Peptide aggregates; B: Less hyphal formation; Clumps; Diffuse clumps and small polyps; F: Diffuse growth; H: Thin; I: Growth inhibition; Microcolony formation; Rippled; Small polyps; Thick; W: Halo formation on top, microlonies on bottom. The class given is cell-based. The text has this:
In certain embodiments peptides that induce alterations in phenotype or other biological activities can also be used as antimicrobial effector moieties.

“Also recorded” adds a separate entry of the source. Ends that are not written are not given here.

As to “1T-3 (VLGIAGGLDAYGELVGGN; Peptide with targeting and/or antimicrobial activity) [Peptide 1T-3]”, the “Target(s) (microorganism bound by the targeting peptide)” value in test [1] is “S. mutans; also recorded: S. gordonii”.
Same read-out and setting: with “1T-4 (LDAYGELVGGN; Peptide with targeting and/or antimicrobial activity) [Peptide 1T-4]” the entry was “S. gordonii; also recorded: S. sanguinis; also recorded: S. oxalis; also recorded: V. atypica; also recorded: L. casei; also recorded: S. mutans”.
On the same count and under the same terms, for “1T-6 (KFINGVLSQFVLERK; Peptide with targeting and/or antimicrobial activity) [Peptide 1T-6]” the value was “S. mutans”.
For “PF-582 (NLKTIEKECPFCNNKMDIKLKD; Peptide with targeting and/or antimicrobial activity)”, the “Organism, effect (morphology, biofilm and growth disruption)” value in test [2] (E. faecalis) is “E. faecalis (A)”.
In the case of “PF-586 (FFNQANYFFKEF; Peptide with targeting and/or antimicrobial activity)”, the “Organism, effect (morphology, biofilm and growth disruption)” value in test [2] (C. jejuni) was “C. jejuni (D)”; in test [2] (E. coli), “E. coli (C)”; in test [2] (E. faecalis), “E. faecalis (D)”; in test [2] (MRSA) it was “MRSA (D)”; in test [2] (S. epidermidis) it was “S. epidermidis (C)”; in test [2] (S. pneumoniae), “S. pneumoniae (D)”.
In the case of “PF-592 (IMKNYKYFKLFIVKYALF; Peptide with targeting and/or antimicrobial activity)”, the “Organism, effect (morphology, biofilm and growth disruption)” value in test [2] (C. jejuni) is reported as “C. jejuni (S)”; in test [2] (E. coli) it was “E. coli (C)”; in test [2] (E. faecalis) it was “E. faecalis (D)”; in test [2] (MRSA) it was “MRSA (D)”; in test [2] (S. epidermidis), “S. epidermidis (M)”; in test [2] (S. pneumoniae), “S. pneumoniae (D)”.
“PF-595 (LQNKIYELLYIKERSKLCS; Peptide with targeting and/or antimicrobial activity)”: the “Organism, effect (morphology, biofilm and growth disruption)” value in test [2] (C. jejuni) is given as “C. jejuni (D)”; in test [2] (E. coli) it was “E. coli (C)”; in test [2] (E. faecalis), “E. faecalis (D)”; in test [2] (MRSA), “MRSA (D)”; in test [2] (S. epidermidis), “S. epidermidis (C)”; in test [2] (S. pneumoniae) it was “S. pneumoniae (R)”.
Regarding “PF-605 (HYRWNTQWWKY; Peptide with targeting and/or antimicrobial activity)”, the “Organism, effect (morphology, biofilm and growth disruption)” value in test [2] (C. albicans) is given as “C. albicans (B)”; in test [2] (C. jejuni), “C. jejuni (R)”; in test [2] (E. coli), “E. coli (C)”; in test [2] (E. faecalis), “E. faecalis (R)”; in test [2] (MRSA), “MRSA (C)”; in test [2] (P. aeruginosa) it was “P. aeruginosa (A)”. The “Organism, effect (morphology, biofilm and growth disruption)” value in test [2] (S. epidermidis) was “S. epidermidis (R)”; in test [2] (S. pneumoniae), “S. pneumoniae (D)”.
As for “PF-610 (VFLKLKTSKIDLASIIFYP; Peptide with targeting and/or antimicrobial activity)”, the “Organism, effect (morphology, biofilm and growth disruption)” value in test [2] (C. jejuni) was “C. jejuni (D)”; in test [2] (E. coli), “E. coli (C)”; in test [2] (E. faecalis), “E. faecalis (D)”; in test [2] (MRSA) it was “MRSA (D)”; in test [2] (S. epidermidis), “S. epidermidis (C)”; in test [2] (S. pneumoniae), “S. pneumoniae (D)”.
“PF-612 (GTTLKYGLERQLKIDIHPEITIINLNGGADEFAKL; Peptide with targeting and/or antimicrobial activity)”: the “Organism, effect (morphology, biofilm and growth disruption)” value is on record as “E. coli (C)” in test [2] (E. coli); “M. luteus (A)” in test [2] (M. luteus); “MRSA (C)” in test [2] (MRSA); “P. mirabilis (C)” in test [2] (P. mirabilis); “S. epidermidis (C)” in test [2] (S. epidermidis); “S. mutans (F)” in test [2] (S. mutans). Further, the “Organism, effect (morphology, biofilm and growth disruption)” value in test [2] (S. pneumoniae) is recorded as “S. pneumoniae (C)”.
With “PF-615 (FLNRFIFYIFTVKTKSALIKNLFLD; Peptide with targeting and/or antimicrobial activity)”, the “Organism, effect (morphology, biofilm and growth disruption)” value in test [2] (C. jejuni) is listed as “C. jejuni (D)”; in test [2] (E. coli), “E. coli (C)”; in test [2] (E. faecalis) it was “E. faecalis (D)”; in test [2] (MRSA), “MRSA (D)”; in test [2] (S. epidermidis) it was “S. epidermidis (D)”; in test [2] (S. pneumoniae), “S. pneumoniae (D)”.
“PF-618 (KLNTLNKKDNPSLNDQDKNAVLNLLALAK; Peptide with targeting and/or antimicrobial activity)”: the “Organism, effect (morphology, biofilm and growth disruption)” value in test [2] (E. faecalis) is given as “E. faecalis (H)”; in test [2] (S. pneumoniae) it was “S. pneumoniae (I)”.
With “PF-624 (VFLLDSYCFVKINL; Peptide with targeting and/or antimicrobial activity)”, the “Organism, effect (morphology, biofilm and growth disruption)” value in test [2] (E. coli) is listed as “E. coli (C)”; in test [2] (M. luteus), “M. luteus (C)”; in test [2] (MRSA) it was “MRSA (C)”; in test [2] (P. mirabilis), “P. mirabilis (C)”; in test [2] (S. epidermidis) it was “S. epidermidis (D)”; in test [2] (S. mutans), “S. mutans (D)”. For the same substance, in test [2] (S. pneumoniae), the “Organism, effect (morphology, biofilm and growth disruption)” value is “S. pneumoniae (D)”.
For the substance “PF-630 (chain 1 IPATPIIHS; chain 2 IPATPIIHS; Peptide with targeting and/or antimicrobial activity)”, the “Organism, effect (morphology, biofilm and growth disruption)” value in test [2] (MRSA) is reported as “MRSA (M)”.
Take “PF-634 (chain 1 MPKARPVNHNKKKSKITIKSNFTLFYMFNP; chain 2 MPKARPVNHNKKKSKITIKSNFTLFYMFNP; Peptide with targeting and/or antimicrobial activity)”: the “Organism, effect (morphology, biofilm and growth disruption)” value in test [2] (E. coli) was “E. coli (C)”; in test [2] (M. luteus) it was “M. luteus (C)”; in test [2] (MRSA), “MRSA (D)”; in test [2] (P. mirabilis), “P. mirabilis (C)”; in test [2] (S. epidermidis) it was “S. epidermidis (D)”; in test [2] (S. mutans) it was “S. mutans (D)”. For the same substance, the “Organism, effect (morphology, biofilm and growth disruption)” value in test [2] (S. pneumoniae) is given as “S. pneumoniae (D)”.
As to “PF-670 (chain 1 TVIVAPMHSGV; chain 2 TVIVAPMHSGV; Peptide with targeting and/or antimicrobial activity)”, the “Organism, effect (morphology, biofilm and growth disruption)” value is listed as “B. subtilis (H)” in test [2] (B. subtilis) and “S. pneumoniae (H)” in test [2] (S. pneumoniae).
With “PF-C089 (MPKRHYYKLEAKALQFGLPFAYSPIQLLK; Peptide with targeting and/or antimicrobial activity)”, the “Organism, effect (morphology, biofilm and growth disruption)” value in test [2] (P. gingivalis) is listed as “P. gingivalis (R)”.
With “PF-C214 (GGHKQLVIEPLVSQ; Peptide with targeting and/or antimicrobial activity)”, in test [2] (F. nucleatum), the “Organism, effect (morphology, biofilm and growth disruption)” value was “F. nucleatum (T)”.
“PF-C293 (IIIILPKIYLVCKTV; Peptide with targeting and/or antimicrobial activity)”: the figures for the “Organism, effect (morphology, biofilm and growth disruption)” value in test [2] (F. nucleatum), in test [2] (P. gingivalis) and in test [2] (S. mutans) were “F. nucleatum (T)”, “P. gingivalis (R)” and “S. mutans (F)”, respectively.
Turning to RRGCTERLRRMARRNAWDLYAEHFY [PF-148], the “Organism, effect” value in test [2] (B. subtilis) is “B. subtilis (I)”; in test [2] (C. albicans), “C. albicans (B)”; in test [2] (C. jeikeium), “C. jeikeium (H)”; in test [2] (C. jejuni), “C. jejuni (H)”; in test [2] (M. luteus), “M. luteus (A)”; in test [2] (MRSA), “MRSA (C)”. Besides, the “Organism, effect” value was “S. epidermidis (D)” in test [2] (S. epidermidis) and “S. pneumoniae (R)” in test [2] (S. pneumoniae).
With SKFKVLRKIIIKEYKGELMLSIQKQR [PF-530], the “Organism, effect (morphology, biofilm and growth disruption)” value is reported as “E. coli (R)” in test [2] (E. coli); “E. faecalis (C)” in test [2] (E. faecalis); “MRSA (C)” in test [2] (MRSA); “S. epidermidis (H)” in test [2] (S. epidermidis); “S. pneumoniae (R)” in test [2] (S. pneumoniae).
Consider “TKKIELKRFVDAFVKKSYENYILERELKKLIKAINEELPTK [PF-600]”, for which the “Organism, effect (morphology, biofilm and growth disruption)” value is “E. coli (H)” in test [2] (E. coli); “M. luteus (C)” in test [2] (M. luteus); “MRSA (M)” in test [2] (MRSA); “S. epidermidis (C)” in test [2] (S. epidermidis); “S. mutans (S)” in test [2] (S. mutans); “S. pneumoniae (R)” in test [2] (S. pneumoniae).
As for YIQFHLNQQPRPKVKKIKIFL-NH2 [PF-531], the “Organism, effect (morphology, biofilm and growth disruption)” value in test [2] (E. coli) is on record as “E. coli (M)”; in test [2] (P. aeruginosa), “P. aeruginosa (I)”; in test [2] (S. epidermidis) it was “S. epidermidis (I)”; in test [2] (S. pneumoniae) it was “S. pneumoniae (C)”.
